Measured values: patent US11464770B2, “Anticancer pharmaceutical composition” (NATIONAL CANCER CENTER, priority 2016, dated 2022)
Like-named read-outs stand apart in the source and are kept apart here.

Key:
[1] = system: pancreatic cancer cell lines (e.g. MIA PaCa-2); assay: Cell based assay, cell viability (CellTiter-Glo), pancreatic cancer cell lines; conditions: Homo sapiens
Outline: (§1)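 Viability measured by ATP luminescence following 72 h treatment over a 0–2 μM final concentration range.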

brain cancer cell lines = assay: Cell based assay, cell viability (CellTiter-Glo), brain cancer cell lines; conditions: Homo sapiens
[2] = system: lung cancer cell lines (e.g. NCI-H23, NCI-H1229); assay: Cell based assay, cell viability (CellTiter-Glo), lung cancer cell lines; conditions: Homo sapiens, 72 hours treatment, CellTiter-Glo
Outline: as §1

[3] = pancreatic cancer cell line AsPC-1, 72 hours, read-out: IC50, AsPC-1
[4] = pancreatic cancer cell line BxPC-3, 72 hours, read-out: IC50, BxPC-3
[5] = pancreatic cancer cell line CFPAC-1, 72 hours, read-out: IC50, CFPAC-1
[6] = pancreatic cancer cell line Capan-1, 72 hours, read-out: IC50, Capan-1
[7] = pancreatic cancer cell line Capan-2, 72 hours, read-out: IC50, Capan-2
[8] = pancreatic cancer cell line MIA PaCa-2, 72 hours, read-out: IC50, MIA PaCa-2
[9] = pancreatic cancer cell line PANC-1, 72 hours, read-out: IC50, PANC-1
[10] = U138-MG, U-138 MG cell line, read-out: IC50, Brain cancer cell line U-138 MG
[11] = T98G cell line, read-out: IC50, Brain cancer cell line T98G
[12] = U-251 MG cell line, read-out: IC50, Brain cancer cell line U-251 MG
[13] = A549 cells, read-out: IC50, lung cancer cell line A549
[14] = DMS 114 cells, read-out: IC50, lung cancer cell line DMS 114
[15] = NCI-H23 cells, read-out: IC50, lung cancer cell line NCI-H23
[16] = NCI-H460 cells, read-out: IC50, lung cancer cell line NCI-H460
[17] = NCI-H522 cells, read-out: IC50, lung cancer cell line NCI-H522
[18] = NCI-H1299 cells, read-out: IC50, lung cancer cell line NCI-H1299
[19] = NCI-H1437 cells, read-out: IC50, lung cancer cell line NCI-H1437

Row | IC50 [1, 3] [µM] | IC50 [1, 4] [µM] | IC50 [1, 5] [µM] | IC50 [1, 6] [µM] | IC50 [1, 7] [µM] | IC50 [1, 8] [µM] | IC50 [1, 9] [µM] | IC50 (brain cancer cell lines; [10]) [µM] | IC50 (brain cancer cell lines; [11]) [µM] | IC50 (brain cancer cell lines; [12]) [µM] | IC50 [2, 13] [µM] | IC50 [2, 14] [µM] | IC50 [2, 15] [µM] | IC50 [2, 16] [µM] | IC50 [2, 17] [µM] | IC50 [2, 18] [µM] | IC50 [2, 19] [µM] | SMILES | IC50 ([2]; MRC-5 cells, read-out: IC50) [µM]
1 | > 2 | > 2 | > 10 | > 2 | > 2 | 1.45 | > 2 | > 2 | > 10 | 1.28 | > 2 | > 2 | 1.14 | > 2 | > 2 | 1.94 | > 10 | CC(=O)c1c([S+]([O-])Cc2cccc(F)c2)[nH]c2c(Br)ccc(Cl)c2c1=O (centres unmarked) [Compound 50, 3-acetyl-8-bromo-5-chloro-2-((3-fluorobenzyl)sulfinyl)quinolin-4(1H)-one] | > 2
2 | > 2 | > 2 | > 10 | > 2 | > 2 | 1.37 | > 2 | 1.34 | > 10 | 1.17 | 1.7 | > 2 | 1.04 | 1.9 | > 2 | > 2 | > 10 | CC(=O)c1c([S+]([O-])Cc2ccc(SC(F)(F)F)cc2)[nH]c2c(Br)ccc(Cl)c2c1=O (centres unmarked) [Compound 56, 3-acetyl-8-bromo-5-chloro-2-((4-((trifluoromethyl)thio)benzyl)sulfinyl)quinolin-4(1H)-one] | 1.24
3 | > 2 | > 2 | > 10 | > 2 | > 2 | > 2 | > 2 | > 2 | > 10 | > 2 | > 2 | > 2 | 1.37 | > 2 | > 2 | > 2 | > 10 | CC(=O)c1c([S+]([O-])Cc2ccc(C(C)(C)C)cc2)[nH]c2c(Br)ccc(Cl)c2c1=O (centres unmarked) [Compound 60, 3-acetyl-8-bromo-2-((4-(tert-butyl)benzyl)sulfinyl)-5-chloroquinolin-4(1H)-one] | > 2
4 | > 2 | > 2 | > 10 | > 2 | > 2 | 1.22 | > 2 | 1.43 | > 10 | > 2 | > 2 | > 2 | 0.98 | > 2 | > 2 | 1.35 | > 10 | CC(=O)c1c([S+]([O-])Cc2ccc([S+]([O-])C(F)(F)F)cc2)[nH]c2c(Br)ccc(Cl)c2c1=O (centres unmarked) [Compound 64, 3-acetyl-8-bromo-5-chloro-2-((4-((trifluoromethyl)sulfinyl)benzyl)sulfinyl)quinolin-4(1H)-one] | > 2
5 | > 2 | > 2 | > 10 | > 2 | > 2 | 1.44 | > 2 | 1.52 | > 10 | 1.14 | 1.99 | > 2 | 1.03 | 1.61 | > 2 | 1.47 | > 10 | CC(=O)c1c([S+]([O-])Cc2ccc(C(F)(F)F)cc2)[nH]c2c(Br)ccc(Cl)c2c1=O (centres unmarked) [Compound 70, 3-acetyl-8-bromo-5-chloro-2-((4-(trifluoromethyl)benzyl)sulfinyl)quinolin-4(1H)-one] | 1.01
6 | > 2 | > 2 | > 10 | > 2 | > 2 | 1.65 | > 2 | > 2 | > 10 | > 2 | 1.79 | > 2 | 1.46 | > 2 | > 2 | 1.64 | > 10 | CC(=O)c1c([S+]([O-])Cc2ccc(OC(F)(F)F)cc2)[nH]c2c(Br)ccc(Cl)c2c1=O (centres unmarked) [Compound 71, 3-acetyl-8-bromo-5-chloro-2-((4-(trifluoromethoxy)benzyl)sulfinyl)quinolin-4(1H)-one] | > 2

The next lines start with the compound.

Row | SMILES | IC50 [1, 3] [µM] | IC50 [1, 4] [µM] | IC50 [1, 5] [µM] | IC50 [1, 6] [µM] | IC50 [1, 7] [µM] | IC50 [1, 8] [µM] | IC50 [1, 9] [µM] | IC50 (brain cancer cell lines; [10]) [µM] | IC50 (brain cancer cell lines; [11]) [µM] | IC50 (brain cancer cell lines; [12]) [µM] | IC50 [2, 13] [µM] | IC50 [2, 14] [µM] | IC50 [2, 15] [µM] | IC50 [2, 16] [µM] | IC50 [2, 17] [µM] | IC50 [2, 18] [µM] | IC50 [2, 19] [µM] | IC50 ([2]; MRC-5 cells, read-out: IC50) [µM]
7 | CC(=O)c1c([S+]([O-])Cc2ccc(F)cc2F)[nH]c2c(Br)ccc(Cl)c2c1=O (centres unmarked) [Compound 29, 3-acetyl-8-bromo-5-chloro-2-((2,4-difluorobenzyl)sulfinyl)quinolin-4(1H)-one] | > 2 | > 2 | > 10 | > 2 | > 2 | 1.19 | > 2 | 1.38 | > 10 | 1.14 | > 2 | > 2 | 0.91 | 1.77 | > 2 | 1.42 | > 10 | > 2
8 | CC(=O)c1c([S+]([O-])Cc2ccc(F)c(Cl)c2)[nH]c2c(Br)ccc(Cl)c2c1=O (centres unmarked) [Compound 31, 3-acetyl-8-bromo-5-chloro-2-((3-chloro-4-fluorobenzyl)sulfinyl)quinolin-4(1H)-one] | > 2 | > 2 | > 10 | > 2 | > 2 | 1.18 | > 2 | 1.79 | > 10 | 1.09 | 1.72 | > 2 | 0.81 | 1.42 | > 2 | 1.22 | > 10 | > 2
9 | CC(=O)c1c([S+]([O-])Cc2ccc([N+](=O)[O-])cc2)[nH]c2c(Br)ccc(Cl)c2c1=O (centres unmarked) [Compound 33, 3-acetyl-8-bromo-5-chloro-2-((4-nitrobenzyl)sulfinyl)quinolin-4(1H)-one] | > 2 | > 2 | > 10 | > 2 | > 2 | 1.04 | > 2 | > 2 | > 10 | 1.11 | > 2 | > 2 | 0.86 | 1.78 | > 2 | 1.38 | > 10 | 0.82
10 | CC(=O)c1c(S(=O)(=O)Cc2ccccc2)[nH]c2c(Br)ccc(Cl)c2c1=O [Compound 34, 3-acetyl-2-(benzylsulfonyl)-8-bromo-5-chloroquinolin-4(1H)-one] | > 2 | > 2 | > 10 | > 2 | > 2 | 1.99 | > 2 | > 2 | > 10 | > 2 | > 2 | > 2 | 1.39 | > 2 | > 2 | 2 | > 10 | > 2
11 | CC(=O)c1c([S+]([O-])Cc2cc(Cl)ccc2Cl)[nH]c2c(Br)ccc(Cl)c2c1=O (centres unmarked) [Compound 44, 3-acetyl-8-bromo-5-chloro-2-((2,5-dichlorobenzyl)sulfinyl)quinolin-4(1H)-one] | > 2 | > 2 | > 10 | > 2 | > 2 | 1.23 | > 2 | > 2 | > 10 | 1.05 | 1.87 | > 2 | 0.96 | 1.75 | > 2 | 1.28 | > 10 | 0.96
12 | CC(=O)c1c([S+]([O-])Cc2cc(F)cc(F)c2)[nH]c2c(Br)ccc(Cl)c2c1=O (centres unmarked) [Compound 46, 3-acetyl-8-bromo-5-chloro-2-((3,5-difluorobenzyl)sulfinyl)quinolin-4(1H)-one] | > 2 | > 2 | > 10 | > 2 | > 2 | 1.57 | > 2 | > 2 | > 10 | > 2 | > 2 | > 2 | 1.27 | > 2 | > 2 | 1.87 | > 10 | > 2
13 | CC(=O)c1c([S+]([O-])Cc2cc(C)on2)[nH]c2c(Br)ccc(Cl)c2c1=O (centres unmarked) [Compound 51, 3-acetyl-8-bromo-5-chloro-2-(((5-methylisoxazol-3-yl)methyl)sulfinyl)quinolin-4(1H)-one] | > 2 | > 2 | > 10 | > 2 | > 2 | 0.76 | > 2 | 1.92 | > 10 | > 2 | > 2 | > 2 | 0.77 | 1.62 | 1.73 | – | > 10 | 0.58
14 | COc1cccc(C[S+]([O-])c2[nH]c3c(Br)ccc(Cl)c3c(=O)c2C(C)=O)c1 (centres unmarked) [Compound 55, 3-acetyl-8-bromo-5-chloro-2-((3-methoxybenzyl)sulfinyl)quinolin-4(1H)-one] | > 2 | > 2 | > 10 | > 2 | > 2 | 1.69 | > 2 | > 2 | > 10 | > 2 | > 2 | > 2 | 1.28 | > 2 | > 2 | > 2 | > 10 | > 2
15 | CC(=O)c1c([S+]([O-])Cc2ccc([N+](=O)[O-])cc2)[nH]c2c(Cl)ccc(Cl)c2c1=O (centres unmarked) [Compound 57, 3-acetyl-5,8-dichloro-2-((4-nitrobenzyl)sulfinyl)quinolin-4(1H)-one] | > 2 | > 2 | > 10 | > 2 | > 2 | > 2 | > 2 | > 10 | > 10 | > 2 | > 2 | > 2 | 1.83 | > 2 | > 2 | > 2 | > 10 | > 2
16 | COc1cc(C[S+]([O-])c2[nH]c3c(Br)ccc(Cl)c3c(=O)c2C(C)=O)cc(OC)c1 (centres unmarked) [Compound 59, 3-acetyl-8-bromo-5-chloro-2-((3,5-dimethoxybenzyl)sulfinyl)quinolin-4(1H)-one] | > 2 | > 2 | > 10 | > 2 | > 2 | 1.38 | > 2 | 1.5 | > 10 | 1.28 | > 2 | > 2 | 0.92 | 1.81 | > 2 | 1.45 | > 10 | 1.03
